Experimental data: US9688760B2, “Anti-leukocyte adhesion for the mitigation of potential adverse events caused by CD3-specific binding domains” (AMGEN RESEARCH (MUNICH) GMBH, priority 2013, dated 2017)
Read-outs that look alike come from different tables or passages of the source.

Tests used:
patients [1] = assay: Phase 1 clinical study: Blinatumomab with PPS co-medication; assay type: in vivo, human; conditions: for clinical response: with PPS co-medication
Experimental: In a phase 1 clinical study three patients were treated with Blinatumomab at an initial dose of 5 μg/m^2/day for 1 week followed by a dose escalation to 60 μg/m^2/day for additional 3 to 7 weeks.

patients [2] = assay: Clinical studies of Blinatumomab in B-NHL and B-precursor ALL; assay type: in vivo, human
From the text: Various clinical studies evaluating the safety and efficacy of Blinatumomab have been conducted both in B-NHL (Bargou et al. Science. 2008; 321:974-7) and B-precursor ALL (Topp et al. J Clin Oncol. 2011; 29:2493-8). […] These studies established clinical proof of concept for the high therapeutic potential of the bispecific single-chain antibody format in general and of Blinatumomab in special and validated its further development in B-NHL, ALL and CLL. Throughout these studies in B-NHL and B-precursor ALL several pharmacodynamic markers were assessed. […] It was characterized by a swift redistribution after start of infusion and any dose step, i.e. a fast disappearance of circulating T cells within the first 6-12 hours and a subsequent reappearance during the following 2-7 days where high initial B cell-counts correlated with decelerated kinetics of T cell-reappearance (FIG. 1A). This course seemed to be triggered by any significant dose changes of Blinatumomab rather than absolute serum concentrations. In addition, T cell-adhesiveness was measured throughout treatment week 1 by analyzing binding of soluble ICAM-1-Fc fusion proteins to LFA-1 on T cells. […] This finding coincided with T cell-redistribution and supported the concept of Blinatumomab-induced T cell-adhesion to endothelium during redistribution.

HBMEC = assay: In vitro flow chamber: T cell-rolling on HBMEC, long-term conditions; assay type: cell-based, human
Experimental: Human brain microvascular endothelial cells (HBMEC) (#1000, Sciencell Research Laboratories) or human umbilical vein endothelial cells (HUVEC) (#C-12200, Promocell) were used as endothelial cell-model. Cryopreserved HBMEC at passage 1 (>5×10^5 cells/ml) were first cultivated in fibronectin-coated Nunclon-treated 75 cm^2 cell culture flasks (#156499, Nunc) at 37° C. and 5% CO2 in a Heraeus Cytoperm 2 (Thermo Scientific) according to the manufacturer's instructions. Sub-cultivation of HBMEC was done with the Detach Kit (#C-41200, Promocell) consisting of HEPES-buffered balanced salt solution (#C-40000, Promocell), trypsin-EDTA solution (0.04%/0.03%) (#C-41000, Promocell) and trypsin neutralization solution (TNS, #C-41100, Promocell). Briefly, the medium was aspirated from the HBMEC-layer and cells were washed with 2 ml of HEPES-buffered balanced salt solution. Addition of 2 ml of trypsin-EDTA solution for 1-5 min at room temperature led to detachment of HBMEC from the flask bottom. Inactivation of trypsin-EDTA solution was performed by addition of 2 ml of trypsin neutralization solution to the cell suspension. Cells were centrifuged at 300 g for 4 min in a Heraeus Megafuge 40 (Thermo Scientific) and seeded at a cell density of 5×10^5 cells per gelatin-coated 75 cm^2 cell culture flask (#L7230, Biochrom). HBMEC for rolling and adhesion experiments were cultivated in RPMI 1640 medium (#FG1215, Biochrom) supplemented with Nu-Serum IV (10%) (#355505, BD Biosciences), dialyzed FBS (10%) (#SZ0115, Biochrom), MEM-vitamins (1%) (#K0373, Biochrom), L-glutamine (1%) (#K0283, Biochrom), sodium-pyruvate (1%) (#L0473, Biochrom), heparin (10 U/ml) (#L6510, Biochrom), and […] cell growth factor ECGS (30 μg/ml) (#02-102, Millipore). Cultivation of HUVEC was done in endothelial cell growth medium (#C-22010, Promocell) supplemented with dialyzed FBS (10%) (#SZ0115, Biochrom) using gelatin-coated 75 cm^2 cell culture flasks. Sub-cultivation of HUVEC was performed with the Detach Kit ([…], Promocell) and cells were seeded at a cell density of 4.0-7.5×10^5 cells per 75 cm^2 cell culture flask.
Isolation of human PBMC from blood was performed by modified density gradient centrifugation as described elsewhere. Briefly, 15-20 ml of freshly drawn heparinized blood was transferred in Biocoll (#L6115, Biochrom)-containing Leukosep tubes (#227290, Greiner bio-one) and centrifuged in a Hettich Rotanta 460 RS Type 5606 (Hettich Laborapparate) at 1066 g for 15 min. After removal of the plasma fraction the PBMC containing phase was transferred in a new tube and washed twice with FACS-buffer (D-PBS #L1820, 5% FBS #SO115, Biochrom). Erythrocyte lysis was performed with lysis buffer (8.29 g/l NH4Cl, 1.00 g/l KHCO3, 0.037 g/l EDTA) for 5 min at room temperature. For subsequent purification of untouched T cells the human Pan T cell-isolation Kit II (#130-091-156, Miltenyi Biotec) was used according to the manufacturer's instructions.
The ibidi Pump System (#10902, ibidi) was used for cultivation of endothelial cells under flow conditions as well as for performing adhesion and rolling assays of human T cells on endothelial cells. The system consists of the ibidi Pump (#10905, ibidi) and the ibidi Fluidic Unit (#10903, ibidi) which work together to generate a unidirectional flow of medium in an attached slide with a defined channel height. The system is controlled by the ibidi Pump Control software (#10908, notebook+software, ibidi). For cultivation of HBMEC or HUVEC under flow conditions, HBMEC or HUVEC were seeded at a cell density of 2.5×10^6 cells/ml into μ-slide I^0.4 Luer Collagen IV (#80172, ibidi) or μ-slide I^0.4 Luer ibiTreat (#80176, ibidi), respectively according to the manufacturer's instructions and cultivated with a perfusion set “yellow/green” (#10964, ibidi) for 48 h under wall shear stress of 5 or 10 dyn/cm^2, respectively. […]

HUVEC = assay: In vitro flow chamber: T cell-rolling and adhesion on HUVEC, short-term conditions; assay type: cell-based, human
Experimental: Human brain microvascular endothelial cells (HBMEC) (#1000, Sciencell Research Laboratories) or human umbilical vein endothelial cells (HUVEC) (#C-12200, Promocell) were used as endothelial cell-model. Cryopreserved HBMEC at passage 1 (>5×10^5 cells/ml) were first cultivated in fibronectin-coated Nunclon-treated 75 cm^2 cell culture flasks (#156499, Nunc) at 37° C. and 5% CO2 in a Heraeus Cytoperm 2 (Thermo Scientific) according to the manufacturer's instructions. Sub-cultivation of HBMEC was done with the Detach Kit (#C-41200, Promocell) consisting of HEPES-buffered balanced salt solution (#C-40000, Promocell), trypsin-EDTA solution (0.04%/0.03%) (#C-41000, Promocell) and trypsin neutralization solution (TNS, #C-41100, Promocell). Briefly, the medium was aspirated from the HBMEC-layer and cells were washed with 2 ml of HEPES-buffered balanced salt solution. Addition of 2 ml of trypsin-EDTA solution for 1-5 min at room temperature led to detachment of HBMEC from the flask bottom. Inactivation of trypsin-EDTA solution was performed by addition of 2 ml of trypsin neutralization solution to the cell suspension. Cells were centrifuged at 300 g for 4 min in a Heraeus Megafuge 40 (Thermo Scientific) and seeded at a cell density of 5×10^5 cells per gelatin-coated 75 cm^2 cell culture flask (#L7230, Biochrom). […]

patients [3] = conditions: cited from earlier work
[4] = three patients with PPS co-medication

## Blinatumomab: recombinant CD19×CD3 bispecific scFv antibody consisting of four immunoglobulin variable domains assembled into a single polypeptide chain
Patients [1]; Patient 109-036, Follicular Lymphoma grade I/II, after 57 days of civ infusion
  clinical response: complete response (CR)
Patients [1]; Patient 109-040, Lymphoplasmocytic Lymphoma, after 30 days of civ infusion
  clinical response: stable disease (SD)
Patients [1]; Patient 109-042, Follicular Lymphoma grade I/II, after 56 days of civ infusion
  clinical response: complete response (CR)
Patients [1]; patients receiving Blinatumomab without co-medication with PPS
  T cell-counts in peripheral blood 45 minutes after start of infusion or stepwise dose increase: rapid decline of T cell-counts
Patients [1]; [4]
  clinical response after 4 weeks of treatment: one patient had a stable disease
  clinical response after 8 weeks of treatment: Two out of the three patients achieved a complete response
Patients [2]; T cell-redistribution, irrespective of dose level
  time of disappearance of circulating T cells after start of infusion and any dose step: 6 to 12 h
Patients [2]; after peak
  time to return of LFA-1 binding affinity to baseline: ≤ 5 days
Patients [2]; binding of soluble ICAM-1-Fc to LFA-1 on T cells, treatment week 1
  time to peak of increased LFA-1 binding affinity to ICAM-1: ≤ 48 h
Patients [2]; following T cell disappearance
  time of reappearance of circulating T cells: 2 to 7 days
HBMEC; 10 ng/ml Blinatumomab, 0 min, long-term
  T cell-rolling velocity immediately after addition: no decrease of T cell-rolling velocity was detectable
HBMEC; 10 ng/ml Blinatumomab, 45 min after addition, long-term, control −AMG 103 323±78
  mean T cell-rolling velocity±SD: 209±40 μm/sec
HBMEC; histamine-stimulated HBMEC, +AMG 103 10 ng/ml, 45 min, control −AMG 103 430±92
  mean T cell-rolling velocity±SD: 281±96 μm/sec
HBMEC; non-stimulated HBMEC (PPS experiment), +AMG 103 10 ng/ml, 40 min, control −AMG 103 399±153
  mean T cell-rolling velocity±SD: 263±66 μm/sec
HBMEC; non-stimulated HBMEC (anti-CD11a experiment), +AMG 103 10 ng/ml, 10 min, control −AMG 103 304±40
  mean T cell-rolling velocity±SD: 214 μm/sec
HBMEC; non-stimulated HBMEC (anti-CD162 experiment), +AMG 103 10 ng/ml, 45 min, control −AMG 103 539±149
  mean T cell-rolling velocity±SD: 428±89 μm/sec
HBMEC; non-stimulated HBMEC (anti-ICAM-1 experiment), +AMG 103 10 ng/ml, 30 min, control −AMG 103 407±90
  mean T cell-rolling velocity±SD: 335 μm/sec
HBMEC; non-stimulated HBMEC (anti-P-selectin experiment), +AMG 103 10 ng/ml, 40 min, control −AMG 103 449±90
  mean T cell-rolling velocity±SD: 370±55 μm/sec
HBMEC; non-stimulated HBMEC (natalizumab experiment), +AMG 103 10 ng/ml, 40 min, control −AMG 103 482±149
  mean T cell-rolling velocity±SD: 359±102 μm/sec
HBMEC; non-stimulated HBMEC (recombinant P-selectin experiment), +AMG 103 10 ng/ml, 45 min, control −AMG 103 386±77
  mean T cell-rolling velocity±SD: 340±68 μm/sec
HUVEC; T cells pre-incubated with 10 ng/ml Blinatumomab for 45 min, short-term (45 sec), 1 dyn/cm^2, control −AMG 103 283±82
  mean rolling velocity±SD: 237±45 μm/sec
HUVEC; pre-incubation with 10 ng/ml Blinatumomab, short-term conditions, vs −AMG 103
  increase of number of T cells firmly adhering to HUVEC: 2.6 fold
Patients [3]; B-NHL
  effect on malignant B cells in bone marrow and liver: clearance of malignant B cells from bone marrow and liver
Patients [3]; B-NHL, dose level of 0.015 mg/m^2/day
  clinical response: Partial and complete responses were first observed
Patients [3]; B-NHL, doses as low as 0.005 mg/m^2/day civ infusion over four weeks
  effect on B lymphoma cells in peripheral blood: complete and sustained elimination of B lymphoma cells in peripheral blood
Patients [3]; B-precursor ALL, minimal residual disease and relapsed or refractory, four-week civ infusions, 0.015 mg/m^2/day
  clinical response: hematological complete response
Patients [3]; majority of B-NHL patients, dose level of 0.06 mg/m^2/day
  clinical response: substantial tumor regression
